This note sets out measurements from US9650616B2, “Methods for increasing grain yield” (University of Florida Research Foundation, Inc., priority 2014, dated 2017).

The target in assay [1] is T1, maize endosperm AGPase, large subunit variant RG (Q96R, D161G; numbering of SEQ ID NO: 20) (Zea mays, UniProt P55241+Q84PF5, D161G/Q96R).
T1 sequence (P55241 46-516 D161G/Q96R): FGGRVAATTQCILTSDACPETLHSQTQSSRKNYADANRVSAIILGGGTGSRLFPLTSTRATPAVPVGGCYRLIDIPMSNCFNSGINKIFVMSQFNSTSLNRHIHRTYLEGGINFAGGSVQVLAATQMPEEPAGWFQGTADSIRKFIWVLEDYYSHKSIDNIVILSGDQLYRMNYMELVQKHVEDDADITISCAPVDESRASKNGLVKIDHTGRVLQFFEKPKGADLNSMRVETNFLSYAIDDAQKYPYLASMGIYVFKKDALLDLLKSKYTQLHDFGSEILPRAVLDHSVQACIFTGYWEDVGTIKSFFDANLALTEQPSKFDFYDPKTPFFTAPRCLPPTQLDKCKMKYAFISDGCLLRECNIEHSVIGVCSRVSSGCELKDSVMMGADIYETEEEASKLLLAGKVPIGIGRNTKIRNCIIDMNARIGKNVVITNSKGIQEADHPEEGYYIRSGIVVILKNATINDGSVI
T1 sequence (Q84PF5 1-474): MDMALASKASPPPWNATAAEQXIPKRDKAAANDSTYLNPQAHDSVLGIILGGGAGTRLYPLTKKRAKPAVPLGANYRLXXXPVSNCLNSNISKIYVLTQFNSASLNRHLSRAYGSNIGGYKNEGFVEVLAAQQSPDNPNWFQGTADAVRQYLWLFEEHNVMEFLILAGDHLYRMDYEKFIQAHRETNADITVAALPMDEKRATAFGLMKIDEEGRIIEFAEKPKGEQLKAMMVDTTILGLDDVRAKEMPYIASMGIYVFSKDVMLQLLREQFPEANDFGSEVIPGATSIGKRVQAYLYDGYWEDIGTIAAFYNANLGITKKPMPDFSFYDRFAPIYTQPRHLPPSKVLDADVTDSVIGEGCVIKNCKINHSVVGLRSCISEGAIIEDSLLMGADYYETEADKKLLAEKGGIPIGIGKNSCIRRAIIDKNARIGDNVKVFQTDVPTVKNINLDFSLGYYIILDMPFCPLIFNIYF
The assay is described as follows: Apparent kinetic constants with 3-PGA, 37° C., RG. It is filed as biochemical. The note with it: read-out: ATP Km. An excerpt:
The small and large subunit plasmids of maize endosperm AGPase (pMONcBt2 and pMONcSh2, respectively) (Giroux et al., 1996) were expressed in E. coli AC70R1-504 cells (Iglesias et al., 1993) as previously described (Boehlein et al., 2008).
An endpoint assay was used to determine the rate of the AGPase reaction by coupling the formation of PPi to a decrease in NADH concentration (Boehlein et al., 2008). […] The Michaelis constants (Km) were obtained by varying one substrate in the presence of saturating concentrations of the second substrate. The activation constants were obtained by varying the activator at fixed levels of both substrates. All reactions were performed at 37° C. and mixes were prewarmed before starting the reaction with enzyme. […] The absorbance at 340 nm was monitored after 30 min and the amount of PPi produced was determined from a standard curve using PPi in complete reaction mixtures lacking AGPase. Blank samples contained complete reaction mixtures without enzyme and the change in absorbance between the blank and the reaction was used to calculate the amount of PPi produced. […]
The apparent Michaelis constant and maximum velocity of each reaction was calculated from a V vs. S plots using nonlinear regression analysis and the following equation, v=VmaxS/(Km+S), where v is the measured velocity, Vmax is the maximum velocity, S is the substrate concentration. […]

Assay [2] has as its target T2, maize endosperm AGPase, large subunit variant GGR (Q96G, D161G, A443R; numbering of SEQ ID NO: 20) (Zea mays, UniProt P55241+Q84PF5, A443R/D161G/Q96G).
T2 sequence (P55241 46-516 A443R/D161G/Q96G): T1 sequence (P55241 46-516 D161G/Q96R) with R51G, A398R
T2 sequence (Q84PF5 1-474): T1 sequence (Q84PF5 1-474)
Kind of assay: Kinetic constants in the absence of 3-PGA, GGR. The class given is biochemical. As for the experimental part: Reactions were performed for 10 min and terminated by boiling. Blank mixtures contained everything except ATP.
Based on the kinetic results (Table 10) and catalytic properties at 55° C. (Table 10) both D161G and GGR were selected for a more detailed kinetic analysis. […] The GGR mutant was primarily chosen based on its increased catalytic rate at 37° C. and high performance at 55° C. Its high activity in the absence of 3-PGA was also paramount. The first kinetic parameters determined were the Michaelis constants, the catalytic rate (kcat) and the dissociation constant (Kia) for the E-ATP complex, in the absence of 3-PGA. […] For the wt maize enzyme, this activator primarily responds by reducing the Km for both substrates, with little effect on the reaction rate (Boehlein et al., 2013). […] The kinetic mechanism established ATP as the first substrate to bind, thus the activator is no longer necessary for this first step. […] This variant also conditions both heat stability and high activity in the absence of an activator.

The structures appear in SMILES notation. Changes are numbered by the printed parent chain.

`Nc1ncnc2c1ncn2[C@@H]1O[C@H](COP(=O)(O)OP(=O)(O)OP(=O)(O)O)[C@@H](O)[C@H]1O` [ATP]: the Km in assay [1] is 63 µM; in assay [2] (read-out: ATP Km), 100 µM. Moreover, the kcat in assay [2] (ATP varied at fixed G-1-P) worked out at 72.4 s⁻¹.

What is called Km is the substrate concentration at which the rate is half of its maximum. What is called kcat is the number of substrate molecules converted per active site and unit of time at saturation.
